In assay [1] the test system is Ssa-PreQ1 RNA (RNA, riboswitch) AGAGGUUCCUAGCUGAUACCCUCUAUAAAAAACUA
Briefly: photocrosslinking, streptavidin pull-down, PAGE. The following applies: PreQ1 folding buffer: 100 mM KCl, 1 mM MgCl2; covalent; 50 µM RNA, 75 µM bio-CNV, 35 min; also pulled down from MCF7 total RNA.

Assay [2] concerns Cy5-labelled Tte PreQ1 RNA (RNA, riboswitch) CUGGGUCGCAGUAACCCCAGUUAACAAAACAAG
Nature of the assay: microscale thermophoresis. The following applies: 100 mM KCl, 1 mM MgCl2; 50 mM Tris pH 7.5, 5% DMSO, RT; irradiated 365 nm 35 min before MST, covalent, apparent.

Assay [3] deals with Bpu PreQ1 aptamer (RNA, riboswitch) AGAGGUUCUAGCAAAACCCUCUAUAAAAAACUAA
Briefly: photocrosslinking, PAGE gel shift and MALDI-TOF. The settings on record: PreQ1 folding buffer: 100 mM KCl, 1 mM MgCl2; covalent; 50 µM RNA, 75 µM CNV, 365 nm 35 min, RT.

Assay [4] has as its system Bsu PreQ1 aptamer (RNA, riboswitch) AGAGGUUCUAGCUACACCCUCUAUAAAAAACUAA
Briefly: photocrosslinking, PAGE gel shift and MALDI-TOF. The settings on record: PreQ1 folding buffer: 100 mM KCl, 1 mM MgCl2; covalent; 50 µM RNA, 75 µM CNV, 365 nm 35 min, RT.

Assay [5] has as its system Tte PreQ1 RNA (unlabeled) (RNA, riboswitch) CUGGGUCGCAGUAACCCCAGUUAACAAAACAAG
Nature of the assay: photocrosslinking, denaturing PAGE and fluorescence. The following applies: PreQ1 folding buffer: 100 mM KCl, 1 mM MgCl2; covalent; 50 µM RNA, 75 µM CNV, 365 nm; 15% crosslinked at 35 min.

Assay [6] deals with Oih PreQ1 aptamer (RNA, riboswitch) AGAGGUUCUUAGCUUCAACCCUCUAUAAAAAACUAA
Nature of the assay: photocrosslinking, PAGE gel shift and MALDI-TOF. The settings on record: PreQ1 folding buffer: 100 mM KCl, 1 mM MgCl2; covalent; 50 µM RNA, 75 µM CNV, 365 nm 35 min, RT.

Assay [7] concerns Ssa-PreQ1 RNA (RNA, riboswitch) AGAGGUUCCUAGCUGAUACCCUCUAUAAAAAACUA
Nature of the assay: photocrosslinking, PAGE gel shift. The settings on record: PreQ1 folding buffer: 100 mM KCl, 1 mM MgCl2, covalent, 50 µM RNA, 75 µM compound, 365 nm 35 min.

Assay [8] relates to Gth PreQ1 aptamer (RNA, riboswitch) AGAGGUUUCUAGCAAAACCCUCUAUAAAAAACUA
Briefly: photocrosslinking, PAGE gel shift and MALDI-TOF. The following applies: PreQ1 folding buffer: 100 mM KCl, 1 mM MgCl2; covalent; 50 µM RNA, 75 µM CNV, 365 nm 35 min, RT.

The subject of assay [9] is Tte PreQ1 RNA (unlabeled) (RNA, riboswitch) CUGGGUCGCAGUAACCCCAGUUAACAAAACAAG
Nature of the assay: competition with CNV photocrosslinking, PAGE. The settings on record: PreQ1 folding buffer: 100 mM KCl, 1 mM MgCl2; PreQ1 0X-10X; dose-dependent inhibition of CNV crosslinking.

Assay [10] has as its system Ssa-PreQ1 RNA (RNA, riboswitch) AGAGGUUCCUAGCUGAUACCCUCUAUAAAAAACUA
Nature of the assay: competition with bio-CNV photocrosslinking, pull-down, RNAseq. The settings on record: PreQ1 folding buffer: 100 mM KCl, 1 mM MgCl2; 1 µM aptamer in MCF7 total RNA, 250 µM bio-CNV, 500 µM PreQ1; enrichment abolished.

This note sets out measurements from paper PMC12105704 (2025).

Turning to `N#C/C=C/c1ccc2[nH]c3ccc(CCCOC(=O)CCCc4cn(CCOCCOCCOCCNC(=O)CCCC[C@@H]5SC[C@@H]6NC(=O)N[C@@H]65)nn4)cc3c2c1`, the binding result in [1] was “yes”.
With `N#C/C=C/c1ccc2[nH]c3ccccc3c2c1`, in [2], the KD amounted to 400 ± 200 nM. Further, the binding entry in [3], in assay [4], in assay [5], in [6], in [7] (reversed at 302 nm) and in [8] was “yes” in each case.
With `N#C/C=C/c1ccc2[nH]c3cccnc3c2c1`, the binding result in assay [7] (minimal uncaging at 302 nm) is “yes”.
The same measure, in the same setting: the result for `N#C/C=C/c1ccc2[nH]c3ccncc3c2c1` reads “yes”.
With `NCc1c[nH]c2nc(N)[nH]c(=O)c12`, the binding result in [9] and in [10] was “yes” each time.
